The subject of one series is Septoria tritici. The experiment in a line: Septoria tritici in vitro cell test. The conditions noted are these: Zymoseptoria tritici, 168 h; 20 ppm of active ingredient; 7 days incubation; liquid culture, spectrometric measurement of mycelium growth; read-out: efficacy (inhibition of fungal growth). Type of series: cell-based. The procedure:
• Solvent: DMSO • Culture medium: 1 g KH2PO4 (VWR), 1 g K2HPO4 (VWR), 0.5 g Urea (VWR), 3 g KNO3 (Prolabo), 10 g saccharose (VWR), 0.5 g MgSO4, 7H2O (Sigma), 0.07 g CaCl2, 2H2O (Prolabo), 0.2 mg MnSO4, H2O (Sigma), 0.6 mg CuSO4, 5H2O (Sigma), 7.9 mg ZnSO4, 7H2O (Sigma), 0.1 mg H3BO3 (Merck), 0.14 mg NaMoO4, 2H2O (Sigma), 2 mg thiamine (Sigma), 0.1 mg biotine (VWR), 4 mg FeSO4, 7H2O (Sigma), QSP 1 liter • Inoculum: spore suspension Fungicides were solubilized in DMSO and the solution used to prepare the required range of concentrations. […] A spore suspension of S. tritici was prepared and diluted to the desired spore density. Fungicides were evaluated for their ability to inhibit spore germination and mycelium growth in liquid culture assay. The compounds were added in the desired concentration to the culture medium with spores. […] Inhibition of fungal growth was determined by comparing the absorbance values in wells containing the fungicides with the absorbance in control wells without fungicides.

Series [1] can be described thus: Measurement of Log P values by HPLC on reversed phase columns (EEC directive 79/831 Annex V.A8). The conditions noted are these: LogP. Type of series: physicochemical. The method, boiled down: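 Reversed-phase HPLC per EEC directive 79/831 Annex V.A8 with UV detection, 10→95% acetonitrile linear gradient; eluent either 0.1% formic acid (acidic), 0.001 molar ammonium acetate (neutral) or 0.1% phosphoric acid (acidic). Calibrated with C3–C16 straight-chain alkan-2-ones by linear interpolation of retention times; multiple values joined by "+".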

For the compound `Cc1ccc(CC2CON=C(c3nc(C)ncc3Oc3cccc(C(F)(F)F)c3)N2)c(C)c1` (racemic) [Compound I-002, (5RS)-5-(2,4-dimethylbenzyl)-3-{2-methyl-5-[3-(trifluoro-methyl)phenoxy]pyrimidin-4-yl}-5,6-dihydro-4H-1,2,4-oxadiazine], in the series with Septoria tritici, the inhibition at 20 ppm was in the range of 90 to 100%. The chromatographic logP in series [1] was found to be 4.33.

Regarding `C=Cc1cccc(Oc2cnc(C)nc2C2=NOC[C@@H](Cc3ccc(C)cc3C)N2)c1` (racemic) [Compound I-019], the inhibition at 20 ppm in the series with Septoria tritici lay in the range of 90 to 100%. In series [1], this compound displayed a chromatographic logP of 4.09.

As to `Cc1ccc(C[C@@H]2CON=C(c3nc(C)ncc3Oc3cccc(Cl)c3F)N2)c(Cl)c1` (racemic) [Compound I-005], the inhibition at 20 ppm with Septoria tritici was 90 to 100%. In series [1], the chromatographic logP was 4.19.

On to `Cc1ccc(C[C@@H]2CON=C(c3nc(C)ncc3Oc3cccc(Br)c3)N2)c(C)c1` (racemic) [Compound I-009], for which the inhibition at 20 ppm in the series with Septoria tritici lay in the range of 90 to 100%. In series [1], the chromatographic logP was found to be 4.44.

Turning to `Cc1ncc(Oc2cccc(C(F)(F)F)c2)c(C2=NOC[C@@H](Cc3ccc(C(F)F)cc3Cl)N2)n1` (racemic) [Compound I-033], in the series with Septoria tritici, the inhibition at 20 ppm is 90 to 100%. For the same compound, the chromatographic logP in series [1] is 4.02.

In the case of `COc1cccc(Oc2cnc(C)nc2C2=NOC[C@@H](Cc3ccc(C)cc3C)N2)c1` (racemic) [Compound I-032], the inhibition at 20 ppm in the series with Septoria tritici lay in the range of 90 to 100%. Also, the chromatographic logP in series [1] worked out at 3.66.

Regarding `Cc1ccc(C[C@@H]2CON=C(c3nc(C)ncc3Oc3cccc(C4CC4)c3F)N2)c(Cl)c1` (racemic) [Compound I-008], the inhibition at 20 ppm in the series on Septoria tritici lay within 90 to 100%. Also, the chromatographic logP in series [1] was determined as 4.49.

With `Cc1ccc(C[C@@H]2CON=C(c3nc(C)ncc3Oc3cccc(C(F)(F)F)c3)N2)c(Cl)c1` (racemic) [Compound I-013], the inhibition at 20 ppm in the series on Septoria tritici lay in the range of 90 to 100%. This compound also yielded a chromatographic logP in series [1] of 4.47.

On to `Cc1ccc(C[C@@H]2CON=C(c3nc(C)ncc3Oc3cccc(C4CC4)c3F)N2)c(C)c1` (racemic) [Compound I-016], for which the inhibition at 20 ppm in the series on Septoria tritici fell in the range of 90 to 100%. The same compound registered a chromatographic logP in series [1] of 4.41.

As for `C=Cc1ccc(C[C@@H]2CON=C(c3nc(C)ncc3Oc3cccc(C(F)(F)F)c3)N2)c(C)c1` (racemic) [Compound I-006], the inhibition at 20 ppm in the series with Septoria tritici is 90 to 100%. Also, in series [1], the chromatographic logP turned out to be 4.44.

`Cc1ccc(C[C@@H]2CON=C(c3nc(C)ncc3Oc3cccc(C4CC4)c3)N2)c(C)c1` (racemic) [Compound I-024]: the inhibition at 20 ppm in the series on Septoria tritici was 90 to 100%. Further, the chromatographic logP in series [1] is 4.55.

Take `Cc1ccc(C[C@@H]2CON=C(c3nc(C)ncc3Oc3cccc(Cl)c3)N2)c(C)c1` (racemic) [Compound I-023]: the inhibition at 20 ppm with Septoria tritici lay in the range of 80 to 89%. This compound also gave a chromatographic logP in series [1] of 4.15.

As for `Cc1ncc(Oc2cccc(C(F)(F)F)c2)c(C2=NOC[C@@H](Cc3ccc(SC(F)(F)F)cc3)N2)n1` (racemic) [Compound I-030], the inhibition at 20 ppm with Septoria tritici was in the range of 70 to 79%. Further, in series [1], the chromatographic logP turned out to be 4.62.

As to `Cc1ccc(CC2CON=C(c3nc(C4CC4)ncc3Oc3cccc(C(F)(F)F)c3)N2)c(C)c1` (racemic) [Compound I-001, (5RS)-3-{2-cyclopropyl-5-[3-(trifluoro-methyl)phenoxy]pyrimidin-4-yl}-5-(2,4-dimethylbenzyl)-5,6-dihydro-4H-1,2,4-oxadiazine], in the series on Septoria tritici, the inhibition at 20 ppm was in the range of 90 to 100%. For the same compound, the chromatographic logP in series [1] was determined as 5.16.

`Cc1ncc(Oc2cccc(C(F)(F)F)c2)c(C2=NOCC(Cc3ccc(C4CC4)cc3C)N2)n1` (racemic) [Compound I-029, (5RS)-5-[(4-cyclopropyl-2-methyl-phenyl)methyl]-3-[2-methyl-5-[3-(trifluoromethyl)phenoxy]pyrimidin-4-yl]-5,6-dihydro-4H-1,2,4-oxadiazine]: the inhibition at 20 ppm with Septoria tritici is 90 to 100%. The compound further gave a chromatographic logP in series [1] of 4.7.

For `C#Cc1cccc(Oc2cnc(C)nc2C2=NOC[C@@H](Cc3ccc(C)cc3C)N2)c1` (racemic) [Compound I-025], in the series with Septoria tritici, the inhibition at 20 ppm lay within 90 to 100%. Besides, the chromatographic logP in series [1] was 3.85.

In the case of `Cc1ncc(Oc2cccc(C(F)(F)F)c2)c(C2=NOCC(Cc3ccc(Br)cc3C)N2)n1` (racemic) [Compound I-021, (5RS)-5-[(4-bromo-2-methyl-phenyl)methyl]-3-[2-methyl-5-[3-(trifluoro-methyl)phenoxy]pyrimidin-4-yl]-5,6-dihydro-4H-1,2,4-oxadiazine], the inhibition at 20 ppm in the series on Septoria tritici is 90 to 100%. Besides, the chromatographic logP in series [1] was 4.48.

Turning to `Cc1cccc(Oc2cnc(C)nc2C2=NOC[C@@H](Cc3ccc(C)cc3C)N2)c1` (racemic) [Compound I-004], the inhibition at 20 ppm with Septoria tritici was 90 to 100%. Further, the chromatographic logP in series [1] was 3.95.

Consider `CSc1ncc(Oc2cccc(C(F)(F)F)c2)c(C2=NOC[C@@H](Cc3ccc(C)cc3C)N2)n1` (racemic) [Compound I-017], for which, in the series on Septoria tritici, the inhibition at 20 ppm lay within 70 to 79%. The compound also registered a chromatographic logP in series [1] of 5.09.

For the compound `C#Cc1ccc(CC2CON=C(c3nc(C)ncc3Oc3cccc(C(F)(F)F)c3)N2)c(C)c1` (racemic) [Compound I-026, (5RS)-5-[(4-ethynyl-2-methyl-phenyl)methyl]-3-[2-methyl-5-[3-(trifluoromethyl)phenoxy]pyrimidin-4-yl]-5,6-dihydro-4H-1,2,4-oxadiazine], the inhibition at 20 ppm in the series with Septoria tritici fell in the range of 90 to 100%. In series [1], this compound registered a chromatographic logP of 3.99.

Consider `Cc1ccc(C[C@@H]2CON=C(c3nc(C)ncc3Oc3cccc(Cl)c3)N2)c(Cl)c1` (racemic) [Compound I-018], for which, in the series on Septoria tritici, the inhibition at 20 ppm was 90 to 100%. Moreover, the chromatographic logP in series [1] turned out to be 4.22.

Source of the values: US12565489B2, “Heterocyclyl pyrimidines and triazines as novel fungicides” (Bayer Aktiengesellschaft, priority 2020, dated 2026).
